Read-outs that look alike come from different tables or passages of the source.
Legend:
mouse 17β-HSD1 = target: T1, mouse 17β-HSD1 (Mus musculus, UniProt P51656); assay: Inhibition of mouse 17β-HSD1 (recombinant, HEK293 lysate); type: biochemical; settings: for IC50: recombinant mouse enzyme, E1 10 nM, NADPH, read-out: IC50 m17β-HSD1
T1 construct: made in house; host or cells: HEK293 cells, transient transfection; 1,000 g supernatant of the cell lysate
T1 sequence (P51656 1-344): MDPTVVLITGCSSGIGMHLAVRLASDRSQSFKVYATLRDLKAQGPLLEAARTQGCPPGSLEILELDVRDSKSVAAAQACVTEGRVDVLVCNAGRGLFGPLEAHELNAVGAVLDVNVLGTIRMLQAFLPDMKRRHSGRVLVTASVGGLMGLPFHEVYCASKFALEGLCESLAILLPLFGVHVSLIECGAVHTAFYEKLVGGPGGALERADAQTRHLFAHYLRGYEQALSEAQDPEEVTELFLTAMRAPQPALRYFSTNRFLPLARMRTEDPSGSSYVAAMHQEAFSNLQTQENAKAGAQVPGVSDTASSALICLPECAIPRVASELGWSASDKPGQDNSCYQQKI

rat 17β-HSD1 = target: T2, rat 17β-HSD1 (Rattus norvegicus, UniProt P51657); assay: Inhibition of rat 17β-HSD1 (recombinant, HEK293 lysate); type: biochemical; settings: Cmpd conc. 250 nM; read-out: % Inhibition r17β-HSD1
T2 construct: made in house; host or cells: HEK293 cells, transient transfection; 1,000 g supernatant of the cell lysate
T2 sequence (P51657 1-344): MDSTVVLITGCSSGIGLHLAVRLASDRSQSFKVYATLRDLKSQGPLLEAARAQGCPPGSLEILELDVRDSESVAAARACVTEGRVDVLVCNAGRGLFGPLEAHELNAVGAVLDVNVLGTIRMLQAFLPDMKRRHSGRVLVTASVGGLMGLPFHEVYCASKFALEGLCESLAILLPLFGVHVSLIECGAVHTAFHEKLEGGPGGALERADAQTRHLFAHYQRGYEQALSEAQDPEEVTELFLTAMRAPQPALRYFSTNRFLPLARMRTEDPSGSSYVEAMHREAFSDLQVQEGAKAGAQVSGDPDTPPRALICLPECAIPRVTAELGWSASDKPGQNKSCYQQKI

human 17β-HSD1 = target: T3, human 17β-HSD1 (Homo sapiens, UniProt P14061); assay: Inhibition of human 17β-HSD1 (conversion of [3H]-E1 to E2, HPLC radioflow detection); type: biochemical; settings: for IC50: human placental cytosolic enzyme, E1 500 nM, NADH, Tables 1, 4-11, read-out: IC50 [nM] h17β-HSD1; for inhibition at 0.01 µM: read-out: % inhibition h17β-HSD1 @ 10 nM
T3 construct: For the partial purification of 17β-HSD1, the cytosolic fraction was precipitated with ammonium sulfate; from tissue; host or cells: human placenta, cytosolic fraction, ammonium sulfate precipitate
T3 sequence (P14061 1-328): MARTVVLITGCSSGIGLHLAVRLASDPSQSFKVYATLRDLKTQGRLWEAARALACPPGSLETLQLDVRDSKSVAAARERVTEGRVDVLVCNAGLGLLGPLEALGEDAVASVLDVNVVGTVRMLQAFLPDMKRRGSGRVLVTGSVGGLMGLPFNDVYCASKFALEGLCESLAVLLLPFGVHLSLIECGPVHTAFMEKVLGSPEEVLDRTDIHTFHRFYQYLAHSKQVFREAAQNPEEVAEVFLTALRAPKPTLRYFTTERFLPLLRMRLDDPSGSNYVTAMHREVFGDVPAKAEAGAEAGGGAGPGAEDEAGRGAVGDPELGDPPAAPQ

human 17β-HSD2 = target: T4, human 17β-HSD2 (Homo sapiens, UniProt P37059); assay: Inhibition of human 17β-HSD2 (conversion of [3H]-E2 to E1); type: biochemical; settings: for IC50: read-out: IC50 [nM] h17β-HSD2; for inhibition at 0.01 µM: read-out: % inhibition h17β-HSD2 @ 10 nM
T4 construct: 17β-HSD2 was obtained from the microsomal fraction; from tissue; host or cells: human placenta, microsomal fraction
T4 sequence (P37059 1-387): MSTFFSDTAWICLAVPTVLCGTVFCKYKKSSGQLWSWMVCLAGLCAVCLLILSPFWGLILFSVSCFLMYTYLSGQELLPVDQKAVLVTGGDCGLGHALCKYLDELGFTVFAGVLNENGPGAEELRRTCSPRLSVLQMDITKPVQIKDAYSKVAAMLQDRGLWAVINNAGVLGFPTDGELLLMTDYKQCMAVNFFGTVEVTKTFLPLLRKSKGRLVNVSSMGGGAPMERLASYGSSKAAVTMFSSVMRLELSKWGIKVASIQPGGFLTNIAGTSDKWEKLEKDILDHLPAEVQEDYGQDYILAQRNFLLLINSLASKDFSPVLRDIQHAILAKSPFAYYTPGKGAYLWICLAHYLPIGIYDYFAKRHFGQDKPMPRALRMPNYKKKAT

mouse 17β-HSD2 = target: T5, mouse 17β-HSD2 (Mus musculus, UniProt P51658); assay: Inhibition of mouse 17β-HSD2 (liver microsomal fraction); type: biochemical; settings: for inhibition at 1 µM: read-out: Inhibition @ 1 μM m17β-HSD2; for IC50: read-out: IC50 m17β-HSD2; for inhibition at 0.05 µM: read-out: % inhibition m17β-HSD2 @ 50 nM
T5 construct: The pellet fractions containing the microsomal 17β-HSD2 were used for the determination of E1 formation; from tissue; host or cells: mouse liver, microsomal fraction
T5 sequence (P51658 1-381): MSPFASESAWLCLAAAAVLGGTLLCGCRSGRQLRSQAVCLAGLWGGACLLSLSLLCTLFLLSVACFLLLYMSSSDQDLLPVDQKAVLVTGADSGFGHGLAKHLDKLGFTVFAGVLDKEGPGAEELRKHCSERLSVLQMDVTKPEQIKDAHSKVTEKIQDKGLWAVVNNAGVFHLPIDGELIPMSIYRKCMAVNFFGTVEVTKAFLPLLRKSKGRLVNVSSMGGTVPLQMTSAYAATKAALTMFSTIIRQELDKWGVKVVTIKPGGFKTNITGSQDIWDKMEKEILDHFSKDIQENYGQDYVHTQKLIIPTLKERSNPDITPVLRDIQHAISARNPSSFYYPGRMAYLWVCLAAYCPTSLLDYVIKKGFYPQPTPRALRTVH

in vitro = settings: human, pooled human liver S9 fraction
[1] = human liver S9, 1 mg/mL; unit not given
[2] = read-out: Inhibition @ 1 μM m17β-HSD1

inhibition at 1 µM (mouse 17β-HSD1; read-out: % inhibition m17β-HSD1 @ 1 μM) [%] | inhibition at 1 µM (mouse 17β-HSD1; [2]) [%] | inhibition at […] (rat 17β-HSD1) [%] | IC50 (human 17β-HSD1) [nM] | IC50 (human 17β-HSD2) [nM] | inhibition at 1 µM (mouse 17β-HSD2) [%] | half-life at 1 µM (in vitro) [min] | CLint [1] | IC50 (mouse 17β-HSD2) [nM] | IC50 (mouse 17β-HSD1) [nM] | inhibition at 0.01 µM (human 17β-HSD1) [%] | inhibition at 0.01 µM (human 17β-HSD2) [%] | inhibition at 0.05 µM (mouse 17β-HSD2) [%] | Structure (SMILES) | IC50 (mouse 17β-HSD2; mouse liver microsomal fraction, E2 10 nM, NAD+) [nM]
30 | 30 | 51 |  |  |  |  |  |  |  |  |  |  | Nc1cccc(-c2ccc(C(=O)c3c(F)ccc(O)c3F)s2)c1 [Compound 1, [5-(3-Aminophenyl)thiophen-2-yl](2,6-difluoro-3-hydroxyphenyl)methanone] | 
 | 60 |  | 1.2 | 10 | 75 | 4.3 | 160.7 |  |  |  |  |  | O=C(c1ccc(-c2cccc(Cl)c2)s1)c1c(F)ccc(O)c1F [Compound 11, [5-(3-Chloro-phenyl)-thiophen-2-yl]-(2,6-difluoro-3-hydroxy-phenyl)-methanone] | 
 | 38 |  | 0.8 | 11 |  | 2.9 | 241.4 | 78 |  |  |  |  | Cc1cc(C(=O)c2c(F)ccc(O)c2F)sc1-c1ccc(O)c(Cl)c1 [Compound 21, [5-(3-Chloro-4-hydroxy-phenyl)-4-methyl-thiophen-2-yl]-(2,6-difluoro-3-hydroxy-phenyl)-methanone] | 
 | 23 |  | 3.3 | 29 | 40 | 10.7 | 64.5 |  |  |  |  |  | N#Cc1cc(-c2ccc(C(=O)c3c(F)ccc(O)c3F)s2)ccc1O [Compound 25, 5-[5-(2,6-Difluoro-3-hydroxy-benzoyl)-thiophen-2-yl]-2-hydroxy-benzonitrile] | 
 | 32 | 39 | 2.1 | 9 | 84 |  |  |  |  |  |  |  | COc1c(Cl)cc(-c2ccc(C(=O)c3c(F)ccc(O)c3F)s2)cc1Cn1ccnn1 [Compound 31, [5-(3-Chloro-4-methoxy-5-[1,2,3]triazol-1-ylmethyl-phenyl)-thiophen-2-yl]-(2,6-difluoro-3-hydroxy-phenyl)-methanone] | 
 | 33 |  | 1.1 | 3.1 | 89 | 11.3 | 61.5 |  |  |  |  |  | O=C(c1ccc(-c2ccc(O)c(Cl)c2)s1)c1cc(F)c(F)c(O)c1F [Compound 41, (5-(3-Chloro-4-hydroxyphenyl)thiophen-2-yl)(2,4,5-trifluoro-3-hydroxyphenyl)methanone] | 
 |  |  |  |  |  | 25 | 27.7 |  |  | 53 | 77 | 38 | CS(=O)(=O)Nc1cccc(-c2ccc(C(=O)c3cc(F)c(F)c(O)c3F)s2)c1 [Compound 63, N-(3-(5-(2,4,5-trifluoro-3-hydroxybenzoyl)thiophen-2-yl)phenyl)methanesulfonamide] | 
 |  |  |  |  |  | 27.4 | 25.3 |  |  | 66 | 96 | 42 | O=C(c1ccc(-c2ccc(O)cc2)s1)c1cc(F)c(F)c(O)c1F [Compound 68, (5-(4-Hydroxyphenyl)thiophen-2-yl)(2,4,5-trifluoro-3-hydroxyphenyl)methanone] | 
 |  |  |  |  |  | 22 | 31.6 |  |  | 31 | 64 | 70 | Cc1cc(-c2ccc(C(=O)c3cccc(O)c3Cl)s2)cc(C)c1O [Compound 79, (2-Chloro-3-hydroxyphenyl)(5-(4-hydroxy-3,5-dimethylphenyl)thiophen-2-yl)methanone] | 

Continued, compound first:

Structure (SMILES) | inhibition at 1 µM (mouse 17β-HSD1; read-out: % inhibition m17β-HSD1 @ 1 μM) [%] | inhibition at 1 µM (mouse 17β-HSD1; [2]) [%] | inhibition at […] (rat 17β-HSD1) [%] | IC50 (human 17β-HSD1) [nM] | IC50 (human 17β-HSD2) [nM] | inhibition at 1 µM (mouse 17β-HSD2) [%] | half-life at 1 µM (in vitro) [min] | CLint [1] | IC50 (mouse 17β-HSD2) [nM] | IC50 (mouse 17β-HSD1) [nM] | inhibition at 0.01 µM (human 17β-HSD1) [%] | inhibition at 0.01 µM (human 17β-HSD2) [%] | inhibition at 0.05 µM (mouse 17β-HSD2) [%] | IC50 (mouse 17β-HSD2; mouse liver microsomal fraction, E2 10 nM, NAD+) [nM]
COc1ccc(-c2ccc(C(=O)c3c(F)ccc(O)c3F)s2)cc1Cl [Compound 12, [5-(3-Chloro-4-methoxy-phenyl)-thiophen-2-yl]-(2,6-difluoro-3-hydroxy-phenyl)-methanone] |  | 40 |  | 1.3 | 11 | 64 | 4.6 | 149.6 |  |  |  |  |  | 
COc1c(Cl)cc(-c2ccc(C(=O)c3c(F)ccc(O)c3F)s2)cc1Cl [Compound 15, [5-(3,5-Dichloro-4-methoxy-phenyl)-thiophen-2-yl]-(2,6-difluoro-3-hydroxy-phen-yl)-methanone] |  | 43 |  | 0.6 | 41 |  | 18.1 | 38.3 |  |  |  |  |  | 550
COc1c(Cl)cc(-c2ccc(C(=O)c3cc(F)c(F)c(O)c3F)s2)cc1Cl [Compound 45, (5-(3,5-Dichloro-4-methoxyphenyl)thiophen-2-yl)(2,4,5-trifluoro-3-hydroxyphenyl)methanone] |  |  |  | 0.6 | 2.6 |  | 15 |  | 89 | 1730 |  |  |  | 
Cn1cnc(S(=O)(=O)Nc2cccc(-c3ccc(C(=O)c4cc(F)c(F)c(O)c4F)s3)c2)c1 [Compound 48, 1-Methyl-N-(3-(5-(2,4,5-trifluoro-3-hydroxybenzoyl)thiophen-2-yl)phenyl)-1H-imidazole-4-sulfonamide] |  | 12.1 |  | 21 |  |  | 24.9 | 27.9 | 155 |  |  |  |  | 
Cc1cc(-c2ccc(C(=O)c3cc(F)c(F)c(O)c3F)s2)cc(C)c1O [Compound 50, (5-(4-Hydroxy-3,5-dimethylphenyl)thiophen-2-yl)(2,4,5-trifluoro-3-hydroxyphenyl)methanone] |  |  |  | 0.9 | 1.3 |  | 38 | 18.2 | 100 | 650 |  |  |  | 
Cc1c(N)cccc1-c1ccc(C(=O)c2cc(F)c(F)c(O)c2F)s1 [Compound 58, (5-(3-Amino-2-methylphenyl)thiophen-2-yl)(2,4,5-trifluoro-3-hydroxyphenyl)methanone] |  |  |  |  |  |  | 20.8 | 33.3 |  |  | 1.1 | 61 | 40 | 
O=C(c1ccc(-c2cccc3[nH]ccc23)s1)c1cc(F)c(F)c(O)c1F [Compound 62, (5-(1H-Indol-4-yl)thiophen-2-yl)(2,4,5-trifluoro-3-hydroxyphenyl)methanone] |  |  |  |  |  |  | 48.9 | 14.2 |  |  | 93 | 100 | 46 | 
